Results from ChEMBL document CHEMBL1150258, “Predicting binding modes from free energy calculations” (J Med Chem, 2008).

These compounds were tested against Human immunodeficiency virus type 1 reverse transcriptase (Human immunodeficiency virus 1, UniProt Q72547) (assay: Inhibition of HIV1 reverse transcriptase in […]).
Format: cell-based

Structure (SMILES)	IC50 [µM]
CCc1c(C)[nH]c(=O)c(N2CCOCC2)c1Cc1cc(C)cc(C)c1	0.158
CCCCN(CCCC)c1c(Cc2cc(C)cc(C)c2)c(CC)c(C)[nH]c1=O	50.1
CCc1c(C)[nH]c(=O)c(-n2cccc2)c1Cc1cc(C)cc(C)c1	0.0126
CCc1c(C)[nH]c(=O)c(NCc2ccccc2)c1Cc1cc(C)cc(C)c1	0.251
CCOCCN(C)c1c(Cc2cccc(C)c2)c(CC)c(C)[nH]c1=O	0.013
CCc1c(C)[nH]c(=O)c(N(CC)CC)c1Cc1cc(C)cc(C)c1	0.016
CCc1c(C)[nH]c(=O)c(NC(=S)Nc2ccccc2)c1Cc1cccc(C)c1	3.16
CCc1c(C)[nH]c(=O)c(N(C)CCC#N)c1Cc1cccc(C)c1	0.016
CCCNc1c(Cc2cc(C)cc(C)c2)c(CC)c(C)[nH]c1=O	0.02
CCc1c(C)[nH]c(=O)c(NC=O)c1Cc1cc(C)cc(C)c1	0.079
CCC(=O)Nc1c(Cc2cc(C)cc(C)c2)c(CC)c(C)[nH]c1=O	3.98
CCc1c(C)[nH]c(=O)c(N(Cc2ccccc2)Cc2ccccc2)c1Cc1cc(C)cc(C)c1	100
CCCN(C)c1c(Cc2cc(C)cc(C)c2)c(CC)c(C)[nH]c1=O	0.016
CCNC(=S)Nc1c(Cc2cccc(C)c2)c(CC)c(C)[nH]c1=O	25.1
CCCCNc1c(Cc2cc(C)cc(C)c2)c(CC)c(C)[nH]c1=O	0.126
CCc1c(C)[nH]c(=O)c(N2CCCCC2)c1Cc1cc(C)cc(C)c1	0.631
CCc1c(C)[nH]c(=O)c(NC(C)=O)c1Cc1cc(C)cc(C)c1	0.398
CCc1c(C)[nH]c(=O)c(N(C)CCCSC)c1Cc1cc(C)cc(C)c1	0.025
CCCC(=O)Nc1c(Cc2cc(C)cc(C)c2)c(CC)c(C)[nH]c1=O	100
CCc1c(C)[nH]c(=O)c(NC(N)=S)c1Cc1cccc(C)c1	0.316
CCNc1c(Cc2cc(C)cc(C)c2)c(CC)c(C)[nH]c1=O	0.016

Stronger by IC50, values ahead:

IC50 [µM]	Structure (SMILES)
0.003	CCc1c(C)[nH]c(=O)c(N(C)CCCO)c1Cc1cccc(C)c1
0.001	CCc1c(C)[nH]c(=O)c(N(C)CCOC)c1Cc1cccc(/C=C/C#N)c1
0.004	CCc1c(C)[nH]c(=O)c(N(C)CCCCCO)c1Cc1cc(C)cc(C)c1
0.004	CCc1c(C)[nH]c(=O)c(N(C)CC#N)c1Cc1cccc(C)c1
0.008	CCc1c(C)[nH]c(=O)c(N(C)CC)c1Cc1cc(C)cc(C)c1
0.001	CCc1c(C)[nH]c(=O)c(N(C)CCOC)c1Cc1cccc(C)c1
0.002	CCc1c(C)[nH]c(=O)c(N(C)CCOC)c1Cc1cc(C)cc(C)c1
0.01	CCc1c(C)[nH]c(=O)c(NC)c1Cc1cc(C)cc(C)c1
0.01	CCc1c(C)[nH]c(=O)c(N(C)CCCCCO)c1Cc1cccc(C)c1
0.005	CCc1c(C)[nH]c(=O)c(N(C)CCCC#N)c1Cc1cccc(C)c1
0.005	CCc1c(C)[nH]c(=O)c(N(C)CCO)c1Cc1cccc(C)c1
0.006	CCc1c(C)[nH]c(=O)c(N(C)C(C)COC)c1Cc1cc(C)cc(C)c1 (centres undefined)
0.001	CCc1c(C)[nH]c(=O)c(N(C)CC)c1Cc1cccc(/C=C/C#N)c1
